Test results as given in patent US12564650B2, “Carbonic anhydrase IX-targeting radioactive diagnostic and therapeutic medicament and method for preparing same” (NORROY BIOSCIENCE CO., LTD., priority 2022, dated 2026).

Tested on: 786-O tumor (human renal clear cell adenocarcinoma cells)
Test: Competitive inhibition assay in 786-O mouse model
Assay type: in vivo, NOD-SCID mice
Conditions: cold medicament 40 times the mass of hot medicament, 30 minutes before; scan 1 hour
Excerpt: The experimental 786-O animal model was provided by Biaodu Baiao Biotechnology (Shanghai) Co., Ltd. The model was a 786-O tumor subcutaneous heterotopic transplant tumor model established based on NOD-SCID mice. This model was a mouse model constructed for human renal clear cell adenocarcinoma cells. Two animal models were randomly selected and injected with cold medicament NYM0005 through tail vein. The injection dose was 40 times the mass of the injected hot medicament (^68Ga-NYM0005). The order of administration was as follow: injecting the hot medicament ^68Ga-NYM0005 30 minutes after the administration of the cold medicament. After pre-anesthesia with an appropriate concentration of isoflurane/oxygen mixed gas prior to scanning, the animals were placed in a MicroPET/CT imaging cabin (SNPC-303 SuperNova, Pingsheng Medical Technology (Kunshan) Co., Ltd.), and anesthesia was maintained with isoflurane/air mixed gas. A MicroPET/CT scan was performed 1 hour after the administration of the hot medicament. The scanned images were obtained after reconstruction by means of the device software, and the scanned images were analyzed using PMOD software.

With NS(=O)(=O)c1nnc(NC(=O)CCCc2cn(CCCCC(=O)N[C@@H](CC(=O)O)C(=O)NCCCCNC(=O)CN3CCN(CC(=O)O)CCN(CC(=O)O)CC3)nn2)s1 [NYM005] the “blocking of 68Ga-NYM005 uptake of the tumor by cold medicament” value was “significantly block”.
